Assay results published in US6939563B2, “Non-fermented osmotic laxative and method for treating and preventing colorectal cancers” (Inra-Institut National de la Recherche Agronomique, priority 1998, dated 2005).
Where two headings read alike, the source gives them in different places.

Columns and labels:
[1] = test system: colon carcinogenesis in rats; assay: Pereira et al. Carcinogenesis 1994 (Ref 5): agent day 1-35, AOM d. 7 & 14; assay type: in vivo, rat; conditions: from published data
From the text: (§1) Each value is the ratio between the value in the controls given a carcinogenic substance and the value found in animals treated with a preventive agent before or after the carcinogenic substance. The higher the value the greater the effectiveness of the agent.
(§2) The results given in Table 4 were established on the basis of published data indicated in references 2 to 12 in Table 5 below.

[2] = test system: colon carcinogenesis in rats; assay: Wargovich et al. Int. J. Cancer 1995 (Ref 12): AOM, then 4 wks, then agent 4 wks; assay type: in vivo, rat; conditions: Ref 12 (Piroxicam line prints Ref 8); from published data
From the text: as §1, §2

[3] = test system: colon carcinogenesis in rats; conditions: agent day 1-35, AOM on d. 7 & 14, cited from earlier work; for Crypt/ACF: control 2.04 ± 0.04; for ACF/rat: control 26 ± 2.2
[4] = test system: colon carcinogenesis in rats; conditions: AOM, then 4 wks, then agent 4 wks, cited from earlier work; for ACF/rat: Aspirin 0.2 g/kg (control 175), Piroxicam 0.2 (control 125), 13 cis Retinoic (control 140); for Large ACF: controls 55 (aspirin), 40 (piroxicam), 57 (retinoic)
[5] = test system: colon carcinogenesis in rats; conditions: ACF induced by 10x PhIP, DHA 4 h before each dose, cited from earlier work
[6] = test system: colon carcinogenesis in rats; assay: Takahashi et al. Carcinogenesis 1997 (Ref 9): ACF induced by 10x PhIP, DHA before each dose; assay type: in vivo, rat; conditions: from published data
From the text: as §1, §2

[7] = test system: colon carcinogenesis in rats; assay: Takahashi et al. Carcinogenesis 1997 (Ref 10): ACF induced by 20x AOM, DHA with each dose; assay type: in vivo, rat; conditions: from published data
From the text: as §1, §2

[8] = test system: colon carcinogenesis in rats; conditions: 20x AOM, 1 ml DHA with each dose, 12w, cited from earlier work
[9] = test system: colon carcinogenesis in rats; conditions: agent wk-1 to +4, 2x15 mg AOM at wk 0, cited from earlier work; for Crypt/ACF: control 2.59 ± 0.14; for ACF/rat: control 228 ± 32
[10] = test system: colon carcinogenesis in rats; assay: Pereira-Khoury Cancer Lett. 1991 (Ref 4): agent wk-1 to +4, 2x15 mg AOM; assay type: in vivo, rat; conditions: from published data
From the text: as §1, §2

[11] = test system: colon carcinogenesis in rats; conditions: Inulin 10% for 10 wks, AOM at wk 3 & 4, cited from earlier work
[12] = test system: colon carcinogenesis in rats; assay: Reddy et al. Carcinogenesis 1997 (Ref 6): inulin 10 wks, AOM wk 3 & 4; assay type: in vivo, rat; conditions: from published data
From the text: as §1, §2

[13] = test system: colon carcinogenesis in rats; assay: Tanaka et al. Carcinogenesis 1997 (Ref 11): ACF induced by 3 x AOM 15 mg/kg; assay type: in vivo, rat; conditions: from published data; for n° ACF/rat, ratio controls/treated: Hesperidin 1000 ppp, Auraptene 500 ppm
From the text: as §1, §2

[14] = test system: colon carcinogenesis in rats; conditions: 3 x AOM 15 mg/kg, cited from earlier work; for ACF/rat: Hesperidin 1000 ppm (control 89 ± 17), Acetoxychavicol acet 100 ppm (control 118 ± 28), Auraptene (control 157 ± 21); for Crypt/ACF: controls 2.77 (Hesperidin), 2.54 (Acetoxychavicol acet), 2.91 (Auraptene)
[15] = test system: colon carcinogenesis in rats; conditions: Vit. D3 10 ppm post DMH for 16 wks, cited from earlier work
[16] = test system: colon carcinogenesis in rats; assay: Salim et al. Jpn J Cancer Res 88 (Ref 8): Vit. D3 post DMH 16 wks; assay type: in vivo, rat; conditions: from published data
From the text: as §1, §2

CN1C(C(=O)Nc2ccccn2)=C(O)c2ccccc2S1(=O)=O [Piroxicam]
Crypts/ACF, ratio controls/treated [1]: 1.10 | n° ACF/rat, ratio controls/treated [1]: 1.6 | Large ACF, ratio controls/treated [2]: 8 | n° ACF/rat, ratio controls/treated [2]: 2.8 | Crypt/ACF [3]: 1.84 ± 0.1 | ACF/rat [3]: 16 ± 2.8 | ACF/rat [4]: 45 | Large ACF [4]: 5

CC/C=C\C/C=C\C/C=C\C/C=C\C/C=C\C/C=C\CCC(=O)O [DHA]
Crypts/ACF ([5]; control 2.69): 2.39 | ACF/rat ([5]; control 22): 8 | Crypts/ACF, ratio controls/treated [6]: 1.13 | n° ACF/rat, ratio controls/treated [6]: 2.8 | Crypts/ACF, ratio controls/treated [7]: 1.08 | Large ACF, ratio controls/treated [7]: 2.0 | n° ACF/rat, ratio controls/treated [7]: 1.6 | Crypt/ACF ([8]; control 3.2): 2.95 | Large ACF ([8]; control 114): 56 | ACF/rat ([8]; control 308 ± 64): 191 ± 40

Oxothiazolidine
Crypt/ACF [9]: 2.38 ± 0.08 | ACF/rat [9]: 121 ± 11 | Crypts/ACF, ratio controls/treated [10]: 1.09 | n° ACF/rat, ratio controls/treated [10]: 1.9

CC(=O)Oc1ccccc1C(=O)O [Aspirin]
Large ACF, ratio controls/treated [2]: 2.7 | n° ACF/rat, ratio controls/treated [2]: 1.7 | ACF/rat [4]: 100 | Large ACF [4]: 20

Inulin
Large ACF ([11]; control 56): 39 | ACF/rat ([11]; control 120): 78 | Large ACF, ratio controls/treated [12]: 1.4 | n° ACF/rat, ratio controls/treated [12]: 1.5

C[C@]12CC[C@H](O)CC1=CC[C@@H]1[C@@H]2CC[C@]2(C)C(=O)CC[C@@H]12 [Dehydroepiandrosterone]
Crypt/ACF [9]: 2.44 ± 0.07 | ACF/rat [9]: 121 ± 19 | Crypts/ACF, ratio controls/treated [10]: 1.06 | n° ACF/rat, ratio controls/treated [10]: 1.9

CC1=C(CC(=O)O)c2cc(F)ccc2/C1=C\c1ccc([S+](C)[O-])cc1 (centres unmarked) [Sulindac]
Crypts/ACF, ratio controls/treated [1]: 1.10 | n° ACF/rat, ratio controls/treated [1]: 1.7 | Crypt/ACF [3]: 1.82 ± 0.14 | ACF/rat [3]: 15 ± 3.2

COc1ccc([C@@H]2CC(=O)c3c(O)cc(O[C@@H]4O[C@H](CO[C@@H]5O[C@@H](C)[C@H](O)[C@@H](O)[C@H]5O)[C@@H](O)[C@H](O)[C@H]4O)cc3O2)cc1O [Hesperidin]
n° ACF/rat, ratio controls/treated [13]: 2.6 | Crypts/ACF, ratio controls/treated [13]: 1.25 | ACF/rat [14]: 34 ± 5 | Crypt/ACF [14]: 2.22

CC(=O)N[C@@H](CS)C(=O)O [N-acetylcysteine]
Crypt/ACF [9]: 2.35 ± 0.07 | ACF/rat [9]: 151 ± 21 | Crypts/ACF, ratio controls/treated [10]: 1.10 | n° ACF/rat, ratio controls/treated [10]: 1.5

CC1=C(/C=C/C(C)=C/C=C/C(C)=C\C(=O)O)C(C)(C)CCC1 [13 cis retinoic]
Large ACF, ratio controls/treated [2]: 1.9 | n° ACF/rat, ratio controls/treated [2]: 2.0 | ACF/rat [4]: 70 | Large ACF [4]: 30

C=C1CC[C@H](O)C/C1=C/C=C1\CCC[C@]2(C)[C@@H]([C@H](C)CCCC(C)C)CC[C@@H]12 [Vit. D3]
Large ACF ([15]; control 120): 66 | ACF/rat ([15]; control 352): 269 | Large ACF, ratio controls/treated [16]: 1.8 | n° ACF/rat, ratio controls/treated [16]: 1.3

C=C[C@H](OC(C)=O)c1ccc(OC(C)=O)cc1 [Acetoxychavicol acet.]
n° ACF/rat, ratio controls/treated [13]: 1.7 | Crypts/ACF, ratio controls/treated [13]: 1.13 | Large ACF, ratio controls/treated [13]: 2.1 | Large ACF ([14]; Acetoxychavicol acet 100 ppm, control 60): 28 | ACF/rat [14]: 70 ± 10 | Crypt/ACF [14]: 2.24

CC(C)=CCC/C(C)=C/COc1ccc2ccc(=O)oc2c1 [Auraptene]
n° ACF/rat, ratio controls/treated [13]: 2.3 | Crypts/ACF, ratio controls/treated [13]: 1.33
